Like-named read-outs stand apart in the source and are kept apart here.
Experiments:
[1] = tested on: hepatocyte cells of ICR mice; assay: Comet assay (DNA damage), hepatocyte cells; assay type: in vivo; settings: EMS 577.6 mg/kg; for Liver Olive Tail Moment / Liver Tail DNA%: AA analogues 20.0 mg/kg, three consecutive days, 5 animals/group, 100 cells; for DNA damage in hepatocyte cells (comet shape): AA analogues 20 mg/kg, three days
Procedure: (§1) ICR mice were separated into seven groups (n = 5 for each group) and administrated with saline, EMS (577.6 mg/kg), AA I (20 mg/kg), AA II (20 mg/kg), AA IIIa (20 mg/kg), AA IVa (20 mg/kg), or AL I (20 mg/kg) for three consecutive days, respectively. After anesthetization and perfusion, renal and liver tissues were obtained. Comet analysis was performed 2–6 h after the last […] and the processes were according to Günter Speit ([Speit and Rothfuss, 2012]). The Comet Assay software project (CASP) (V1.2.3) was used to analyze the fraction of tail DNA and the Olive Tail Moment. A total of one hundred cells from kidney or liver tissues of each animal were analyzed. The mean, standard deviation (SD) of tail DNA%, and the median of olive tail moment were calculated. Results were analyzed using SPSS 17.0 by one-way analysis of variance (ANOVA) followed by the least significance difference (LSD) test. The significant differences between the groups were tested and defined by p-value < 0.05.
(§2) Mice (n=35) were randomly divided into seven groups, with 5 mice in each group. Then they were administered with normal saline (NS), ethyl methanesulfonate (EMS) (577.6 mg/kg), and aristolochic acid analogues (20.0 mg/kg) for three days, respectively. After the final administration, mice were perfused and euthanized to obtain the renal and liver tissues.
(§3) The removed renal and liver tissues were minced into pieces and dispersed with 10 mL DMEM high-sugar culture medium. The mixture was filtered through a 200-mesh sieve and centrifuged at 800 rpm for 5 min. The supernatant was discarded and the cells were resuspended and centrifuged again. Then the cells were cultured in DMEM containing 10% FBS.
(§4) 25 μL single-cell suspension (5000 cells) with 75 μL of 0.7% low melting point agarose gel were mixed and 100 μL of the mixture was dropped on the bottom layer of agarose gel. The prepared glass slides were stored in the refrigerator at 4℃ for 4 min, and then dipped into the alkaline cell lysates for 2 h at 4℃. Slides were removed and rinsed with PBS buffer for 3 times.
(§5) The alkaline electrophoresis buffer (pH 13.0) precooled at 4℃ was put into the electrophoresis tank. The tank was covered to avoid light and remained static at 4℃ for 20 min. The voltage was set at 0.8 V/cm, and the current was 300 mA during the electrophoreses.
(§6) After 20 min, the slides were removed and the excess salt was washed away. The slides were washed by 0.4 mol/L precooled Tris-HCl buffer for 5 min and then dehydrated by ethanol for 15 min. Then the slides were stained with 30 μL PI staining solution (2 μg/mL) in the dark for 15 s, and washed in water several times.
(§7) A fluorescence microscope was used for visualization of DNA damage. A total of 100 randomly selected cells from kidney or liver tissues were analyzed. Parameters such as tail DNA percentage and Olive Tail Moment were calculated by the Comet Assay Software Project (CASP, V1.2.3).

ICR mice = assay: In vivo acute toxicity, single oral gavage dose, 14 days; settings: for Histopathology of liver tissues: AA I 20 and 40 mg/kg; for Serum AST, ALT, ALP, TBIL, TBA, CREA, BUN vs control group: single oral dose, day 14, AA I at 20 and 40 mg/kg
Procedure: The animal experiments were approved by the Research Ethics Committee of the Institute of Chinese Materia Medica, China Academy of Chinese Medical Sciences (ICMM, CACMS). The experiment was carried out according to ethical guidelines and regulations for the use of laboratory animals. A total of 160 ICR mice were randomly divided into 16 groups, each comprising 10 mice (5 males and 5 females). The drugs were administered in a single dose by oral gavage and the dose volume was 0.2 ml/10 g. The control group was treated with 0.5% CMC-Na. Other groups received AA I, AA II, AA IIIa, AA IVa, or AL I, at concentrations of 10, 20, and 40 mg/kg, respectively. Animal weights were recorded every two days. The animals were fasted overnight before experiments and sacrificed on day 14. Blood samples were collected and centrifuged for 15 min at 3,500×g. AST, ALT, ALP, CREA, BUN, TBA, and TBIL levels in plasma were examined. SPSS 17.0 (IBM Corp., United States) was used for the statistical and significance analyses. The renal and liver tissues were embedded and stained with H&E. Histological images were obtained through Olympus BX63 (Olympus Corporation, Japan) at a magnification of ×200.

renal cells of ICR mice = assay: Comet assay (DNA damage), renal cells; assay type: in vivo; settings: EMS 577.6 mg/kg; for Kidney Olive Tail Moment / Kidney Tail DNA%: AA analogues 20.0 mg/kg, three consecutive days, 5 animals/group, 100 cells; for DNA damage in renal cells (comet shape): AA analogues 20 mg/kg, three days
Procedure: as §1, §2, §3, §4, §5, §6, §7

HK-2 cells = assay: cells; assay type: cell-based, human; settings: for IC50: Homo sapiens; for Cell viability: HK-2, 1,000 μM, 24 or 48 h
Procedure: Cytotoxicity analysis was determined using the Cell Counting kit 8 (CCK8) (Bioss, China). HK-2 was cultured in DMEM/F12 (containing 10% fetal bovine serum, 100 U/ml penicillin, and 100 μg/ml streptomycin; Gibco, Invitrogen) at 37°C in 5% carbon dioxide incubator. The cells were maintained at 80% confluency and the medium was replaced every 3 days for routine cultivation. HK-2 cells (8,000 cells/well) were seeded in 96-well plates overnight. The cells were then treated with analogues of AA for 24 or 48 h at different concentrations (6.8, 27.0, 54.0, 108.0, 216.0, and 432.0 μM for AA I; 12.5, 25.0, 100.0, 200.0, 400.0, and 800.0 μM for AA II; 15.6, 62.5, 125.0, 250.0, 500.0, and 1000.0 μM for AA IIIa; 15.6, 31.3, 62.5, 125.0, 500.0, and 1,000.0 μM for AA IVa; 8.0, 16.0, 32.0, 64.0, 128.0, and 256.0 μM for AL I). Subsequently, the cells were incubated with 10% CCK8 solution for another 2 h. […] The absorbance (OD) of each well was measured with a spectrophotometer (Spark; Tecan, Switzerland) at 450 nm and the IC50 values were obtained by fitting the curve through nonlinear regression with GraphPad Prism 7.0 (GraphPad Software, CA, United States).

[2] = 10, 20 mg/kg single oral dose, 14 days
[3] = 10, 20, 40 mg/kg single oral dose, male and female mice
[4] = 10, 20, 40 mg/kg single oral dose, 14 days

COc1cccc2c1cc([N+](=O)[O-])c1c(C(=O)O)cc3c(c12)OCO3 [AA I, aristolochic acid I]
Liver Olive Tail Moment [1]: 0.88±0.14 μm
Liver Tail DNA% [1]: 2.92±0.54%
DNA damage in hepatocyte cells (comet shape) [1]: no DNA damage
Survival rate (ICR mice; 40 mg/kg single oral dose, 14 days, n = 10, deaths on days 4, 5 and 6): 30%
Histopathology of renal tissues (ICR mice; 40 mg/kg, H&E): Significant lesions
Death (ICR mice; [2]): no death
Body weight change vs control group (ICR mice; [3]): remarkable reduction of body weight
Histopathology of liver tissues (ICR mice; H&E): no corresponding pathological changes
Serum AST, ALT, ALP, TBIL, TBA, CREA, BUN vs control group (ICR mice): different levels of changes in serum levels of TBIL, ALP, BUN, and CREA
Kidney Olive Tail Moment (renal cells of ICR mice): 7.45 ± 1.94 μm
Kidney Tail DNA% (renal cells of ICR mice): 15.39 ± 1.75%
DNA damage in renal cells (comet shape) (renal cells of ICR mice): evident comet shape
IC50 (HK-2 cells; HK-2, 24 h): 197 µM
IC50 (HK-2 cells; HK-2, 48 h): 76.7 µM

O=C(O)c1cc2c(c3c1c([N+](=O)[O-])cc1ccccc13)OCO2 [AA II, aristolochic acid II]
Liver Olive Tail Moment [1]: 0.89±0.22 μm
Liver Tail DNA% [1]: 3.37±0.42%
DNA damage in hepatocyte cells (comet shape) [1]: No DNA damage
Nephrotoxicity or hepatotoxicity (ICR mice; 40 mg/kg): No distinct nephrotoxicity or hepatotoxicity
Mice died (ICR mice; 40 mg/kg single oral dose, n = 10, death on day 8): 10%
Body weight change (ICR mice; 40 mg/kg, male and female mice, first 10 days): Slight weight loss
Death (ICR mice; [2]): no death
Serum AST, ALT, ALP, TBIL, TBA, CREA, BUN vs control group (ICR mice): no significant difference
Kidney Olive Tail Moment (renal cells of ICR mice): 0.78±0.30 μm
Kidney Tail DNA% (renal cells of ICR mice): 3.08±0.25%
DNA damage in renal cells (comet shape) (renal cells of ICR mice): No DNA damage
IC50 (HK-2 cells; HK-2, 24 h, read-out: IC50): > 800 µM
IC50 (HK-2 cells; HK-2, 48 h, read-out: IC50): 306 µM

O=C(O)c1cc2c(c3c1c([N+](=O)[O-])cc1ccc(O)cc13)OCO2 [AA IIIa, aristolochic acid IIIa]
Liver Olive Tail Moment [1]: 0.92±0.20 μm
Liver Tail DNA% [1]: 3.09±0.47%
DNA damage in hepatocyte cells (comet shape) [1]: No DNA damage
Nephrotoxicity or hepatotoxicity (ICR mice; 40 mg/kg): No distinct nephrotoxicity or hepatotoxicity
Death (ICR mice; [4]): no death
Body weight change vs control group (ICR mice; [3]): no distinct changes in body weight
Serum AST, ALT, ALP, TBIL, TBA, CREA, BUN vs control group (ICR mice): no significant difference
Kidney Olive Tail Moment (renal cells of ICR mice): 0.61±0.16 μm
Kidney Tail DNA% (renal cells of ICR mice): 2.60±0.69%
DNA damage in renal cells (comet shape) (renal cells of ICR mice): No DNA damage
Cell viability (HK-2 cells): ≥ 50 % of control

COc1cc(O)cc2c1cc([N+](=O)[O-])c1c(C(=O)O)cc3c(c12)OCO3 [AA IVa, aristolochic acid IVa]
Liver Olive Tail Moment [1]: 0.81±0.14 μm
Liver Tail DNA% [1]: 2.98±0.22%
DNA damage in hepatocyte cells (comet shape) [1]: No DNA damage
Nephrotoxicity or hepatotoxicity (ICR mice; 40 mg/kg): No distinct nephrotoxicity or hepatotoxicity
Body weight change (ICR mice; 40 mg/kg, female mice, day 5, returned on day 7): drastic weight loss
Death (ICR mice; [4]): no death
Body weight change vs control group (ICR mice; [3]): no distinct changes in body weight
Serum AST, ALT, ALP, TBIL, TBA, CREA, BUN vs control group (ICR mice): no significant difference
Kidney Olive Tail Moment (renal cells of ICR mice): 0.57±0.22 μm
Kidney Tail DNA% (renal cells of ICR mice): 2.80±0.99%
DNA damage in renal cells (comet shape) (renal cells of ICR mice): No DNA damage
Cell viability (HK-2 cells): ≥ 50 % of control

COc1cccc2c1cc1c3c(cc4c(c32)OCO4)C(=O)N1 [AL I, aristolactam I]
Liver Olive Tail Moment [1]: 0.74±0.29 μm
Liver Tail DNA% [1]: 3.26±0.52%
DNA damage in hepatocyte cells (comet shape) [1]: No DNA damage
Serum AST, ALT, ALP activity (ICR mice; 10 mg/kg): decreased AST, ALT, and ALP activity
Nephrotoxicity or hepatotoxicity (ICR mice; 40 mg/kg): No distinct nephrotoxicity or hepatotoxicity
Death (ICR mice; [4]): no death
Body weight change vs control group (ICR mice; [3]): no distinct changes in body weight
Histopathology of liver tissues (ICR mice; H&E): No pathological changes
Serum AST, ALT, ALP, TBIL, TBA, CREA, BUN vs control group (ICR mice): no significant difference
Kidney Olive Tail Moment (renal cells of ICR mice): 0.66±0.21 μm
Kidney Tail DNA% (renal cells of ICR mice): 3.12±0.33%
DNA damage in renal cells (comet shape) (renal cells of ICR mice): No DNA damage
IC50 (HK-2 cells; HK-2, 24 h, read-out: IC50): > 256 µM
IC50 (HK-2 cells; HK-2, 48 h, read-out: IC50): 37.1 µM

CCOS(C)(=O)=O [EMS, ethyl methanesulfonate, reference compound]
Liver Olive Tail Moment [1]: 33.60±6.11 μm
Liver Tail DNA% [1]: 55.18±6.23 %
DNA damage in hepatocyte cells (comet shape) [1]: significant comet tailing
Kidney Olive Tail Moment (renal cells of ICR mice): 23.01±4.09 μm
Kidney Tail DNA% (renal cells of ICR mice): 40.97±7.55 %
DNA damage in renal cells (comet shape) (renal cells of ICR mice): significant comet tailing
